Legend:
Type in all cases: cell-based
Nav 1.7 [1] = target: T1, Nav 1.7 (Homo sapiens (Human), UniProt Q15858); test: Nav 1.7 in vitro assay, IonWorks Quattro (IWQ) population patch-clamp; settings: HEK 293 cells stably transfected with Nav 1.7; 26th pulse to -20 mV
Nav 1.7 [2] = target: T1, Nav 1.7; test: Nav 1.7 in vitro PX assay, PatchXpress whole cell voltage clamp; settings: HEK 293 cells stably transfected with human Nav1.7; partially inactivated state (20 to 50% inactivation)
Outline: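 HEK293 cells stably expressing human Nav1.7, whole-cell voltage clamp at a holding potential giving 20–50% inactivation; currents elicited by 20 msec pulses to −10 mV at 0.1 Hz.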

Nav 1.5 = Nav 1.5 (Homo sapiens (Human), UniProt Q14524); test: Nav 1.5 in vitro assay, IonWorks Quattro (IWQ) population patch-clamp; settings: HEK 293 cells stably transfected with Nav 1.5; 26th pulse to -20 mV
Nav 1.5, sequence (Q14524 whole entry): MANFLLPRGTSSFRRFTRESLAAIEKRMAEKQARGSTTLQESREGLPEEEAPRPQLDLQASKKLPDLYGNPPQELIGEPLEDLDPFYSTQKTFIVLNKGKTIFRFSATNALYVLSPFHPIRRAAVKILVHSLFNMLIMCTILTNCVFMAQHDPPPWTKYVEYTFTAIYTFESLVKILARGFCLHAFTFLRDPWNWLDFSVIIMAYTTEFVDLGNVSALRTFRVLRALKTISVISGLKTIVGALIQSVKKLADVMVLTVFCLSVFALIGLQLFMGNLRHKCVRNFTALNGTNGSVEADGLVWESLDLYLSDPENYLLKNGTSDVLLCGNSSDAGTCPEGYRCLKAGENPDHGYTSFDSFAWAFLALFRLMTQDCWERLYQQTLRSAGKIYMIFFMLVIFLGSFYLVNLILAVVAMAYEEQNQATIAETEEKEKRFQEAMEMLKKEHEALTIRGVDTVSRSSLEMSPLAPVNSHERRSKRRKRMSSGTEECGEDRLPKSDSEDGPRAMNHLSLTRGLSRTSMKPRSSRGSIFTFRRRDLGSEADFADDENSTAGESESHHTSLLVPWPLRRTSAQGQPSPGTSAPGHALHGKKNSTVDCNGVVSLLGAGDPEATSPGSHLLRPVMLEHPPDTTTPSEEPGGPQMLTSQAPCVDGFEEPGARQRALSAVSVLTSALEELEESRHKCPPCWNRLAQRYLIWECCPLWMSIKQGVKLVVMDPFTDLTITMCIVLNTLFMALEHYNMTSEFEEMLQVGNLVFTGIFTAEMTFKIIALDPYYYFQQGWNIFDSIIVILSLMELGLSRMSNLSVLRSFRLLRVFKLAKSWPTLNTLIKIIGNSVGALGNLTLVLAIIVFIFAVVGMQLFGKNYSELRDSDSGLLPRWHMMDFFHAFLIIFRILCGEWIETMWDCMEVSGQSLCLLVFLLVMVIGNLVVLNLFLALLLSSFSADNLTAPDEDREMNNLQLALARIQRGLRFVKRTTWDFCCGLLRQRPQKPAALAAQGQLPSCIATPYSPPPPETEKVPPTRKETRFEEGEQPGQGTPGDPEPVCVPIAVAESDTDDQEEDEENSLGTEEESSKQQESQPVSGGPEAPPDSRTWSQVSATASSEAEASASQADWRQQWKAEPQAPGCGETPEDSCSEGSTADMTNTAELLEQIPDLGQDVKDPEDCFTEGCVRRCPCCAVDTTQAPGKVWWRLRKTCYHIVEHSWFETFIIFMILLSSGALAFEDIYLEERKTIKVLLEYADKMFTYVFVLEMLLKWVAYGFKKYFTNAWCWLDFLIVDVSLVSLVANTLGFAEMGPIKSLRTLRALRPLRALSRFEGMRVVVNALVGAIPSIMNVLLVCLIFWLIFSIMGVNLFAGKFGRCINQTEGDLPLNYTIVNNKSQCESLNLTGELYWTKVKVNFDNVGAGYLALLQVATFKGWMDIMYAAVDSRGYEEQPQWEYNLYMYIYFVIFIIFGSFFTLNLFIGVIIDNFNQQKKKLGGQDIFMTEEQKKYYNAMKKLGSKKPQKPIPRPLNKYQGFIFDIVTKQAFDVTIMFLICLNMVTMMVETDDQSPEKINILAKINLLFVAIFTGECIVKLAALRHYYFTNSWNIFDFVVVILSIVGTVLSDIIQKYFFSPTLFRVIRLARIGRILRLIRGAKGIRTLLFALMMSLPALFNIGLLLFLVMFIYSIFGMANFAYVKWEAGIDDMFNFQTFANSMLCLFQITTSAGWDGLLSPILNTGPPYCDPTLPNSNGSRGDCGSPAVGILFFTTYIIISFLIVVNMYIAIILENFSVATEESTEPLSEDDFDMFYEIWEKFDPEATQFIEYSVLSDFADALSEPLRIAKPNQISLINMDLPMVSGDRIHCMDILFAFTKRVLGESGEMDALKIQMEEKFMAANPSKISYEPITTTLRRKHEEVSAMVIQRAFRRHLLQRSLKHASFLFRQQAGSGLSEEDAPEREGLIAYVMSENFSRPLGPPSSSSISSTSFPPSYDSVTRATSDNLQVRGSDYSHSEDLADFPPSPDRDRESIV

T1 sequence (Q15858 whole entry): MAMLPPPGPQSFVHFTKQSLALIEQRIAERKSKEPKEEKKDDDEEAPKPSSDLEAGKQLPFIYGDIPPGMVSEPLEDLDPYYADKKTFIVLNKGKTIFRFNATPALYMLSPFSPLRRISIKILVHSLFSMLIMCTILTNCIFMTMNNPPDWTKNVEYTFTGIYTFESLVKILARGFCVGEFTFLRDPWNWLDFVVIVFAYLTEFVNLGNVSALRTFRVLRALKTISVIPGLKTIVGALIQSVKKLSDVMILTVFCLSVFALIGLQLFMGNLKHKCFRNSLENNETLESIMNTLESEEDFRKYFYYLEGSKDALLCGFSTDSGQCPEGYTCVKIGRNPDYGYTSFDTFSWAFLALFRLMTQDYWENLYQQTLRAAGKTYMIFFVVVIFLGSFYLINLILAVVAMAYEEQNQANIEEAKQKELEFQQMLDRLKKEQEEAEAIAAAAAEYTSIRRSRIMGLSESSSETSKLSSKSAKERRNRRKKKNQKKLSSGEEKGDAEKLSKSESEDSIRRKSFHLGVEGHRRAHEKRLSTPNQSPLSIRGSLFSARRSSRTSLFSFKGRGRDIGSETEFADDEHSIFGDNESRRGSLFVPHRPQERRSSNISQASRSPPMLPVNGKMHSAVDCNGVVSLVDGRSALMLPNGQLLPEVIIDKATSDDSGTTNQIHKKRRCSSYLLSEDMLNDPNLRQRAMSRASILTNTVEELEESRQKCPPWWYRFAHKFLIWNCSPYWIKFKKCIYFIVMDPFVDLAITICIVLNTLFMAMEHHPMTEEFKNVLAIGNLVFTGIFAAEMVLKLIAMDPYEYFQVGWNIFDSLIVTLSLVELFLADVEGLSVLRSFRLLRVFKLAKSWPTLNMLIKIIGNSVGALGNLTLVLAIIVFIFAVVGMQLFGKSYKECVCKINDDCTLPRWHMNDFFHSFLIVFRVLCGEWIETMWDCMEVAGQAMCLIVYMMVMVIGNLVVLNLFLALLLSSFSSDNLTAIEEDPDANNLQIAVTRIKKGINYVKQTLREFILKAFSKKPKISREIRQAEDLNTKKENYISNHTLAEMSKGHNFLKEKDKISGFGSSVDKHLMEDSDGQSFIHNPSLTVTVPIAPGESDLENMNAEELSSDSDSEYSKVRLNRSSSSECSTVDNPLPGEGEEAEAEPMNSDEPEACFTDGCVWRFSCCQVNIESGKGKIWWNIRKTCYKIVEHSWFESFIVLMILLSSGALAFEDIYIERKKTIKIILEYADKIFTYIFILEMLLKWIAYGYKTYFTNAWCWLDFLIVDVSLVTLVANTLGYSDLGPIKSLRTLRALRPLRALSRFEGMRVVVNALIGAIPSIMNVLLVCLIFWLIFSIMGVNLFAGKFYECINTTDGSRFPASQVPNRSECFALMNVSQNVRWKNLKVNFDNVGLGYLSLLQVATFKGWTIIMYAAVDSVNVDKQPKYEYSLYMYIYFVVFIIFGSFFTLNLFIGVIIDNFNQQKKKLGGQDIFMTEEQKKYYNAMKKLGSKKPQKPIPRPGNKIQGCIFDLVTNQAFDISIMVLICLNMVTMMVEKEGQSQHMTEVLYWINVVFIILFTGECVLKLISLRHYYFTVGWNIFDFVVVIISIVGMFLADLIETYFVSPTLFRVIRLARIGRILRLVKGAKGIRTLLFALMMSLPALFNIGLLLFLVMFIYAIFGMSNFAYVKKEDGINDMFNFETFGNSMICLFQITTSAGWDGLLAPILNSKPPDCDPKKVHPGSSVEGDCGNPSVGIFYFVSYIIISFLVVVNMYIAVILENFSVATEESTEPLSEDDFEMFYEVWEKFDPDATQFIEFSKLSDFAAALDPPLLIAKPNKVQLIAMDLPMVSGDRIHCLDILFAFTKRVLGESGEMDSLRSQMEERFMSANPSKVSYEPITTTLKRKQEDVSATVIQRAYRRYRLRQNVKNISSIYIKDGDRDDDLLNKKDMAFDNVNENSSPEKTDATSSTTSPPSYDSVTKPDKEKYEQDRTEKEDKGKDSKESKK

IC50 (Nav 1.7 [1]) [nM] | IC50 (Nav 1.7 [2]) [nM] | Structure (SMILES) | IC50 (Nav 1.5) [nM]
87.5 | 469 | CCc1ccc(N2CCOc3cc(S(=O)(=O)Nc4nccs4)ccc32)c(C#N)c1 [Example 203, 4-(2-Cyano-4-Ethylphenyl)-N-(Thiazol-2-Yl)-3,4-Dihydro-2H-Benzo[B][1,4]Oxazine-7-Sulfonamide] | 1090
68.5 | 800 | COc1nc(C(F)(F)F)ccc1N1CCOc2cc(S(=O)(=O)Nc3nccs3)ccc21 [Example 214, 4-(2-Methoxy-6-(Trifluoromethyl)Pyridin-3-Yl)-N-(Thiazol-2-Yl)-3,4-Dihydro-2H-Benzo[B][1,4]Oxazine-7-Sulfonamide] | > 10000
111 | 640 | O=S(=O)(Nc1nccs1)c1ccc2c(c1)OCCN2c1cccc(Cl)c1 [Example 41, 4-(3-Chlorophenyl)-N-(Thiazol-2-Yl)-3,4-Dihydro-2H-Benzo[B][1,4]Oxazine-7-Sulfonamide] | 4930
216 | 1180 | Cc1ccc(F)cc1N1CCOc2cc(S(=O)(=O)Nc3nccs3)ccc21 [Example 79, 4-(5-Fluoro-2-Methylphenyl)-N-(Thiazol-2-Yl)-3,4-Dihydro-2H-Benzo[B][1,4]Oxazine-7-Sulfonamide 2,2,2-Trifluoroacetate] | > 10000
249 | 1980 | COc1ccc(C)nc1N1CCOc2cc(S(=O)(=O)Nc3nccs3)ccc21 [Example 109, 4-(3-methoxy-6-methyl-2-pyridinyl)-N-1,3-thiazol-2-yl-3,4-dihydro-2H-1,4-benzoxazine-7-sulfonamide] | > 10000
1280 | 5570 | Cc1ccc(N2CCOc3cc(S(=O)(=O)Nc4nccs4)ccc32)cc1C#N [Example 115, 4-(3-Cyano-4-methylphenyl)-N-(thiazol-2-yl)-3,4-dihydro-2H-benzo[b][1,4]oxazine-7-sulfonamide] | 7730
165 | 1080 | O=S(=O)(Nc1nccs1)c1ccc2c(c1)OCCN2c1ccccc1Cl [Example 46, 4-(2-Chlorophenyl)-N-(Thiazol-2-Yl)-3,4-Dihydro-2H-Benzo[B][1,4]Oxazine-7-Sulfonamide] | > 10000
143 | 773 | COc1cc(-c2cccc(F)c2)ccc1N1CCOc2cc(S(=O)(=O)Nc3nccs3)ccc21 [Example 201, 4-(3′-Fluoro-3-Methoxy-[1,1′-Biphenyl]-4-Yl)-N-(Thiazol-2-Yl)-3,4-Dihydro-2H-Benzo[B][1,4]Oxazine-7-Sulfonamide] | 4830
53.5 | 894 | COc1cc(Cl)ccc1N1C[C@@H](C)Oc2cc(S(=O)(=O)Nc3nccs3)ccc21 (single isomer, unassigned) [Example 105] | > 10000
15 | 193 | N#Cc1cc(C(F)(F)F)ccc1N1CCOc2cc(S(=O)(=O)Nc3nccs3)ccc21 [Example 49, 4-(2-Cyano-4-(Trifluoromethyl)Phenyl)-N-(Thiazol-2-Yl)-3,4-Dihydro-2H-Benzo[B][1,4]Oxazine-7-Sulfonamide] | 1150

The remaining lines, values behind:

Structure (SMILES) | IC50 (Nav 1.7 [1]) [nM] | IC50 (Nav 1.7 [2]) [nM] | IC50 (Nav 1.5) [nM]
O=S(=O)(Nc1ncns1)c1ccc2c(c1)OCCN2c1ccc(C(F)(F)F)cc1Br [Example 1, 4-(2-Bromo-4-(Trifluoromethyl)Phenyl)-N-(1,2,4-Thiadiazol-5-Yl)-3,4-Dihydro-2H-Benzo[B][1,4]Oxazine-7-Sulfonamide] | 11.3 | 58.9 | > 10000
O=S(=O)(Nc1nccs1)c1ccc2c(c1)OCCN2c1cccc(C(F)(F)F)c1 [Example 173, N-(Thiazol-2-Yl)-4-(3-(Trifluoromethyl)Phenyl)-3,4-Dihydro-2H-Benzo[B][1,4]Oxazine-7-Sulfonamide 2,2,2-Trifluoroacetate] | 236 | 1650 | > 10000
COc1cc(C#N)ccc1N1CCOc2cc(S(=O)(=O)Nc3nccs3)c(F)cc21 [Example 217, 4-(4-Cyano-2-Methoxyphenyl)-6-Fluoro-N-(Thiazol-2-Yl)-3,4-Dihydro-2H-Benzo[B][1,4]Oxazine-7-Sulfonamide] | 8 | 207 | 1310
N#Cc1cc(C(F)(F)F)ccc1N1CCOc2cc(S(=O)(=O)Nc3ncns3)ccc21 [Example 31, 4-(2-Cyano-4-(Trifluoromethyl)Phenyl)-N-(1,2,4-Thiadiazol-5-Yl)-3,4-Dihydro-2H-Benzo[B][1,4]Oxazine-7-Sulfonamide] | 16 | 91.4 | 1460
O=S(=O)(Nc1ccccn1)c1ccc2c(c1)OCCN2c1ccc(C(F)(F)F)cc1C1=CCNCC1 [Example 62, N-(Pyridin-2-Yl)-4-(2-(1,2,3,6-Tetrahydropyridin-4-Yl)-4-(Trifluoromethyl)Phenyl)-3,4-Dihydro-2H-Benzo[B][1,4]Oxazine-7-Sulfonamide] | 49 | 282 | > 10000
N#Cc1cc(C(F)(F)F)ccc1N1CCOc2cc(S(=O)(=O)Nc3ncco3)ccc21 [Example 90, 4-(2-Cyano-4-(Trifluoromethyl)Phenyl)-N-(Oxazol-2-Yl)-3,4-Dihydro-2H-Benzo[B][1,4]Oxazine-7-Sulfonamide] | 924 | 2590 | > 10000
O=S(=O)(Nc1nccs1)c1ccc2c(c1)OCCN2c1ccc(C(F)(F)F)cc1C(O)CO (stereo not drawn) [Example 204, 4-(2-(1,2-dihydroxyethyl)-4-(trifluoromethyl)phenyl)-N-(thiazol-2-yl)-3,4-dihydro-2H-benzo[b][1,4]oxazine-7-sulfonamide] | 47.5 | 343 | 637
O=S(=O)(Nc1nccs1)c1ccc2c(c1)OCCN2c1ccc(C(F)(F)F)nc1 [Example 122, N-(thiazol-2-yl)-4-(6-(trifluoromethyl)pyridin-3-yl)-3,4-dihydro-2H-benzo[b][1,4]oxazine-7-sulfonamide] | 615 | 2900 | 7030
O=S(=O)(Nc1ncccn1)c1ccc2c(c1)OCCN2c1ccc(C(F)(F)F)cc1C1=CCNCC1 [Example 86, N-(Pyrimidin-2-Yl)-4-(2-(1,2,3,6-Tetrahydropyridin-4-Yl)-4-(Trifluoromethyl)Phenyl)-3,4-Dihydro-2H-Benzo[B][1,4]Oxazine-7-Sulfonamide] | 320 | 851 | 2260
N#Cc1cc(C(F)(F)F)ccc1N1CCOc2c1ccc(S(=O)(=O)Nc1nccs1)c2F [Example 216, 4-(2-Cyano-4-(Trifluoromethyl)Phenyl)-8-Fluoro-N-(Thiazol-2-Yl)-3,4-Dihydro-2H-Benzo[B][1,4]Oxazine-7-Sulfonamide] | 34 | 516 | 5730
O=S(=O)(Nc1nncs1)c1ccc2c(c1)OCCN2c1ccc(C(F)(F)F)cc1Cl [Example 28, 4-(2-Chloro-4-(Trifluoromethyl)Phenyl)-N-(1,3,4-Thiadiazol-2-Yl)-3,4-Dihydro-2H-Benzo[B][1,4]Oxazine-7-Sulfonamide] | 656 | 2650 | > 10000
N#Cc1cc(C(F)(F)F)ccc1N1CCOc2cc(S(=O)(=O)Nc3cscn3)ccc21 [Example 152, 4-(2-cyano-4-(trifluoromethyl)phenyl)-N-(thiazol-4-yl)-3,4-dihydro-2H-benzo[b][1,4]oxazine-7-sulfonamide] | 1630 | 2780 | 9420
[N-]=[N+]=Nc1ccc(N2CCOc3cc(S(=O)(=O)Nc4nccs4)ccc32)c(C2=CCNCC2)c1 [Example 65, 4-(4-Azido-2-(1,2,3,6-Tetrahydropyridin-4-Yl)Phenyl)-N-(Thiazol-2-Yl)-3,4-Dihydro-2H-Benzo[B][1,4]Oxazine-7-Sulfonamide Bis(2,2,2-Trifluoroacetate)] | 24 | 24.4 | 5280
N#Cc1cc(-c2cccc(F)c2)ccc1N1CCOc2cc(S(=O)(=O)Nc3nccs3)ccc21 [Example 200, 4-(3-Cyano-3′-Fluoro-[1,1′-Biphenyl]-4-Yl)-N-(Thiazol-2-Yl)-3,4-Dihydro-2H-Benzo[B][1,4]Oxazine-7-Sulfonamide] | 144 | 150 | 854
O=S(=O)(Nc1nccs1)c1ccc2c(c1)OCCN2c1ccc(-n2cccn2)cc1 [Example 141, 4-(4-(1H-pyrazol-1-yl)phenyl)-N-(thiazol-2-yl)-3,4-dihydro-2H-benzo[b][1,4]oxazine-7-sulfonamide] | 671 | 6420 | 2500
N#Cc1cc(-c2ccc(F)cc2)ccc1N1CCOc2cc(S(=O)(=O)Nc3nccs3)ccc21 [Example 199, 4-(3-Cyano-4′-Fluoro-[1,1′-Biphenyl]-4-Yl)-N-(Thiazol-2-Yl)-3,4-Dihydro-2H-Benzo[B][1,4]Oxazine-7-Sulfonamide] | 469 | 387 | 1220
N#Cc1cc(-c2ccccc2F)ccc1N1CCOc2cc(S(=O)(=O)Nc3nccs3)ccc21 [Example 198, 4-(3-cyano-2′-fluoro-[1,1′-biphenyl]-4-yl)-N-(thiazol-2-yl)-3,4-dihydro-2H-benzo[b][1,4]oxazine-7-sulfonamide] | 627 | 339 | 1880
O=S(=O)(Nc1ncns1)c1ccc2c(c1)OCCN2c1cccc2ccccc12 [Example 36, 4-(Naphthalen-1-Yl)-N-(1,2,4-Thiadiazol-5-Yl)-3,4-Dihydro-2H-Benzo[B][1,4]Oxazine-7-Sulfonamide] | 31.5 | 145 | > 10000
COc1ncc(C(F)(F)F)cc1N1CCOc2cc(S(=O)(=O)Nc3nccs3)ccc21 [Example 145, 4-(2-Methoxy-5-(trifluoromethyl)pyridin-3-yl)-N-(thiazol-2-yl)-3,4-dihydro-2H-benzo[b][1,4]oxazine-7-sulfonamide] | 235 | 11800 | 7380
